{"source": "patent US8637013B2", "about": "“Treatment of drug-related side effect and tissue damage by targeting the CD24-HMGB1-Siglec10 axis” (The Regents of The University of Michigan, priority 2009, dated 2014)", "key": {"[1]": {"test_system": "sialidase activity in the sera of sepsis mice", "assay": "Serum sialidase activity of CLP mice (Amplex Red Neuraminidase assay kit)", "format": "biochemical, mouse", "settings": "sera from CLP mice mixed with inhibitors prior to the assay"}, "[2]": {"target": "T1, CD24-Siglec 10 interaction (Homo sapiens, UniProt Q96LC7)", "T1 construct": "Recombinant protein consisting of human IgG Fc and extracellular domains of Siglec 10; purchased R&D Systems", "T1 sequence (Q96LC7 17-550 limits assumed)": "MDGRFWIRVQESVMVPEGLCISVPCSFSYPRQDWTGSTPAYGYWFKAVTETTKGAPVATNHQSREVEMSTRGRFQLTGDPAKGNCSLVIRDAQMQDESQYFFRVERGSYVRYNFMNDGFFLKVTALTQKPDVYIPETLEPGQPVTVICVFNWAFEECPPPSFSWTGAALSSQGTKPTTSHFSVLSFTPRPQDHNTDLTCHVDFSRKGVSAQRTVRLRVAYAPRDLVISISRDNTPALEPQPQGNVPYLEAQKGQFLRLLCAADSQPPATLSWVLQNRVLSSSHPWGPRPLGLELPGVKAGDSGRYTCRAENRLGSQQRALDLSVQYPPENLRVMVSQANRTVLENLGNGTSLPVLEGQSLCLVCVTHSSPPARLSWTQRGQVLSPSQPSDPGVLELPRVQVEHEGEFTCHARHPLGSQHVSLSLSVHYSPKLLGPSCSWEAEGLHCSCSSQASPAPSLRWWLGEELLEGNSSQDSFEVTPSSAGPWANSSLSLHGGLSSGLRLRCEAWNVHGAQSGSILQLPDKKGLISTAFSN", "assay": "Inhibition of CD24-Siglec 10 interaction by sialosides (microplate binding assay)", "settings": "for Inhibition of CD24-Siglec 10 interaction: Siglec 10Fc preincubated with sialoside, then added to plate-bound CD24Fc"}, "[3]": {"test_system": "AAP-induced liver damage in WT B6 mice", "assay": "AAP-induced liver damage in WT mice treated with CD24Fc", "format": "in vivo", "settings": "AAP 16 mg/mouse, 5 hours after AAP, vs control IgG Fc"}, "[4]": {"target": "T2, HMGB1 (Homo sapiens, UniProt P09429)", "T2 construct": "the full-length HMGB-1 expression vector was transfected into TSA cells; FLAG; made in house; host or cells: TSA cells (purified protein)", "T2 sequence (P09429 1-215)": "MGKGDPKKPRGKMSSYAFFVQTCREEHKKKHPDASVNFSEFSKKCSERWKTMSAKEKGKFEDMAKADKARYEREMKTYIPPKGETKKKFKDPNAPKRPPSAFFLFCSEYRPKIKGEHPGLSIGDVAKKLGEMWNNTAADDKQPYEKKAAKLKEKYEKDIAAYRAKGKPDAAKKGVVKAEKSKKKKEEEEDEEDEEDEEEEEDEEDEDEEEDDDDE", "assay": "Co-immunoprecipitation of HMGB1 with CD24-Fc", "format": "binding", "settings": "vs control IgG-Fc; cation-dependent"}, "[5]": {"test_system": "HMGB1", "assay": "Co-immunoprecipitation of HMGB1 with CD24-Fc", "format": "binding, human", "settings": "FLAG-tagged constructs in COS7 cell lysates"}}, "note": "No end group written: not given here."}
{"compound": "CC(=O)N[C@@H]1C(O)C=C(C(=O)O)OC1[C@H](O)[C@H](O)CO", "note": "(stereo partly drawn) [Compound 1, 2,3-dehydro-2-deoxy-N-acetylneuraminic acid]", "values": [{"measurement": "Inhibition of sialidase activity in the serum of sepsis mice", "setting": "[1]", "result": "minimal effect"}]}
{"compound": "CC(=O)N[C@H]1[C@H]([C@H](O)[C@H](O)CO)O[C@@](O[C@H]2[C@@H](O)[C@@H](CO)O[C@@H](O[C@H]3[C@H](O)[C@@H](O)C(O)O[C@@H]3CO)[C@@H]2O)(C(=O)O)C[C@@H]1O", "note": "(stereo partly drawn) [Neu5Acα2-3Lac]", "values": [{"measurement": "Inhibition of CD24-Siglec 10 interaction", "setting": "[2]", "result": "efficient inhibition"}]}
{"compound": "CC(=O)N[C@H]1[C@H]([C@H](O)[C@H](O)CO)O[C@@](OC[C@H]2O[C@@H](O[C@H]3[C@H](O)[C@@H](O)C(O)O[C@@H]3CO)[C@H](O)[C@@H](O)[C@H]2O)(C(=O)O)C[C@@H]1O", "note": "(stereo partly drawn) [Neu5Acα2-6Lac]", "values": [{"measurement": "Relative potency in inhibiting CD24-Siglec 10 interaction", "setting": "[2]; 2-6 versus 2-3 linked sialoside", "result": "more potent"}, {"measurement": "Inhibition of CD24-Siglec 10 interaction", "setting": "[2]", "result": "efficient inhibition"}]}
{"compound": "O=C(CO)N[C@H]1[C@H]([C@H](O)[C@H](O)CO)OC(C(=O)O)=C[C@@H]1O", "note": "[Neu5Gc2en, 2,3-dehydro-2-deoxy-N-glycolylneuraminic acid]", "values": [{"measurement": "Inhibition of sialidase activity in the serum of sepsis mice", "setting": "[1]", "result": "partial inhibition"}]}
{"compound": "CD24Fc: fusion protein that binds to HMGB1 and Siglec 10 (SETTTGTSSNSSQSTSNSGLAPNPTNATTK; not fully specified (C-terminus); also: fused to dimerising Fc (not given here))", "values": [{"measurement": "Inflammatory cytokines in serum (IL-6, IL-10, MCP-1, IFN-γ, TNF-α)", "setting": "[3]", "result": "massive reduction"}, {"measurement": "Coimmunoprecipitation of recombinant HMGB-1", "setting": "[4]", "result": "specifically coimmunoprecipitated"}, {"measurement": "Immunoprecipitation of box A-containing HMGB1 mutant", "setting": "[5]", "result": "not the box A-containing mutant"}, {"measurement": "Immunoprecipitation of full length HMGB1 and box B-containing mutant", "setting": "[5]", "result": "immunoprecipitated"}]}
